The record followed here is US10774121B2, “Methods and compositions for treating neurodegenerative disorders and Alzheimer's Disease and improving normal memory” (The Regents of the University of California, priority 2006, dated 2020).

For one experiment, the system named is Aβ production. The experiment is described as follows: ELISA of Aβ produced in β-APP-only:PS-1-only co-culture extracts. Format: cell-based, mouse. The settings on record: synthetic peptides 0-3 μM added at the time of the co-culture. How it is done:
Co-cultures of β-APP-only and PS-1-only cells were carried out in the presence and absence of Peptide 1-80 (0-3 μM). ^35S-GTPγS assays were carried out on extracts as a measure of G-protein activation. The Aβ produced in these co-culture extracts was determined by ELISA.
ES-derived mouse cells (PS-1^−/−; PS-2^−/−) that expressed only small amounts of endogenous β-APP but no PS, were transiently transfected with cDNA for human β-APP to produce cells expressing excess human β-APP over mouse β-APP, and no PS-1 or PS-2 (β-APP-only cells). Embryonic (E18) mouse primary fibroblasts derived from β-APP-null mice, expressing only small amounts of endogenous PS-1 and PS-2, were transfected with cDNAs for human PS-1 to produce cells expressing excess human over mouse PS-1 but no β-APP (PS-1-only cells). The minigenes were co-transfected with PS-1 in the PS-only APP−/− fibroblasts to inhibit the endogenous mouse Gα under investigation in those cells. PS−/− ES cells were separately transfected with human β-APP cDNA (β-APP only cells) and the two types of cells were co-cultured for 24 hours. Cells were harvested and detergent-buffer extracts of the co-cultures were prepared. Determination of [^35S]GTPγS incorporation in these cultures was carried out in the presence and absence of each minigene: Aliquots each containing 100 μg total protein were reacted with ^35S-GTPγS and immunoprecipitation of each ^35S-GTPγS-treated extract was carried out with antibodies directed to the particular Gα under investigation. Specificity of binding of a particular Gα to PS-1 was established by blocking of GTPγS incorporation in the presence of the specific minigene inhibitor.
Co-culture of β-APP-only with PS-1-only cells was carried out as described above.
ELISA for the production of Aβ1-40 was carried out using sandwich ELISA kits (Biosource).
In general terms: An ELISA detects its analyte on a solid surface through an enzyme-linked reagent.

The next experiment has as its target T1, Gαs (Rattus norvegicus, UniProt P63095).
T1 construct: tissue Applied Cell Science, Rockville, Md; host or cells: rat hippocampal membranes, solubilized in CHAPS buffer
Put plainly: Stimulation of 35S-GTPγS binding to Gs by PS-1 cytoplasmic peptides in rat hippocampal membrane preparations. Format: biochemical. The settings on record: peptides 200 μM, rat hippocampal membranes. How it is done:
(§1) The autonomous activation of G-proteins Gαo, Gαq and Gαs by oligopeptides corresponding to cytoplasmic loops 1, 2, 3 and the COOH tail of human PS-1 in the 7-TM PS model were examined. The peptides were individually tested for their ability to stimulate ^35S-GTPγS binding to each G-protein in rat hippocampal membrane preparations.
(§2) Rat hippocampal membranes (Applied Cell Science, Rockville, Md.) were solubilized in CHAPs buffer.
(§3) Peptides (200 μM) were incubated without pre-treatment with solubilized rat hippocampal membranes (50 μg) in the ^35S reaction mixture. Accumulation of γ-S GTP the ^35S-GTPγS was determined after immunoprecipitation with the specific anti-G Ab.
On the technique in general: GTPγS resists hydrolysis and so accumulates on activated G proteins.

The target in experiment [1] is T2, Gαo (Rattus norvegicus, UniProt P59215).
T2 construct: tissue Applied Cell Science, Rockville, Md; host or cells: rat hippocampal membranes, solubilized in CHAPS buffer
The experiment is described as follows: Stimulation of 35S-GTPγS binding to Go by PS-1 cytoplasmic peptides in rat hippocampal membrane preparations. The class given is biochemical. The settings on record: peptides 200 μM; for stimulation of 35S-GTPγS binding to Go: rat hippocampal membranes.
Source text: To provide evidence that the GoA binding observed in FIG. 5A was directly to PS-1, and not to a co-immunoprecipitated, PS-associated protein the autonomous activation of Go by synthetic peptide fragments corresponding to cytoplasmic loops 1, 2, 3 and the carboxyl tail of PS-1 (in the 7-TM PS model) were investigated (see FIGS. 20B and C and Table 1). The peptides were individually tested for their ability to stimulate ^35S-GTPγS binding to Go in rat hippocampal membrane preparations.
as §1, §2, §3

In a further experiment the target is T3, Gαq (Rattus norvegicus, UniProt P82471).
T3 sequence (P82471 1-359): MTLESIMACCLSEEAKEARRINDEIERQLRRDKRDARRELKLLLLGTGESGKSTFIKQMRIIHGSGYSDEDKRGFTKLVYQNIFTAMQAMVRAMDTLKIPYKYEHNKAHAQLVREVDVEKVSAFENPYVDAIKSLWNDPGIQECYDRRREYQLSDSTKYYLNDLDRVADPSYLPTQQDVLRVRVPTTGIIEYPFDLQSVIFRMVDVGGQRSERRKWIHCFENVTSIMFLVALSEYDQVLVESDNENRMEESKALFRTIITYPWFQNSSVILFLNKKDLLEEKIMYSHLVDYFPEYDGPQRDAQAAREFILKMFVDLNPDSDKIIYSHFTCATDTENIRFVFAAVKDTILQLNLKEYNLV
Put plainly: Stimulation of 35S-GTPγS binding to Gq by PS-1 cytoplasmic peptides in rat hippocampal membrane preparations. The class given is biochemical. The settings on record: peptides 200 μM, rat hippocampal membranes. As for the experimental part:
as §1, §2, §3

Experiment [2] concerns protein tyrosine kinase activity. Put plainly: Protein tyrosine kinase ELISA on extracts of β-APP-transfected ES double-null cells mixed with PS-1-transfected DAMI cells. The class given is cell-based. The settings on record: 25 μg protein added, 0-20 min after mixing. As for the experimental part: DAMI:ES cells: Equal numbers (0.5×10^6/ml) of β-APP 695 (Selkoe and Podlisny, 2002)-transfected ES double-null cells and PS-1 transfected DAMI cells were co-cultured at 37° C. for various times between 0-20 mins.
At several times between 0 and 20 min after mixing, an aliquot of each cell mixture was rapidly centrifuged, the culture medium was removed, and the cell pellet was suspended in 200 μl of extraction buffer (50 mM Tris, pH 8.0/150 mM NaCl/0.5% Nonidet-P40) containing protease inhibitors (1 mM 4-(2-aminoethyl) benzene sulfonyl fluoride hydrochloride (AEBSF)/1 μg/ml antipain/0.1 μg/ml pepstatin A/0.1 μg/ml leupeptin) and the phosphatase inhibitor sodium orthovanadate (0.1 mM). The mixture was sonicated with three bursts of 20 sec duration and then centrifuged. These extract supernatants were then used for Western blot and ELISA analyses as described below.
ELISAs Protein tyrosine kinase activity was measured by an Enzyme Linked Immunosorbent Assay (ELISA) using a tyrosine kinase assay kit (Upstate Biotechnology). A biotinylated substrate peptide containing tandem repeats of Poly (Glu4-Tyr) was incubated with supernatants of extracts of transfected cells mixed for different times ([…]) in the presence of non-radioactive ATP and a Mn^2+/Mg^2+ co-factor cocktail according to the manufacturer's protocols. A phosphotyrosine specific mouse monoclonal antibody (4G10) conjugated to horseradish peroxidase was used to detect the phosphorylated substrate by ELISA.
ES double-null cells transfected with β-APP were mixed with DAMI cells transfected with PS-1, and were co-cultured for various times between 0-20 min, using cell densities that ensured cell-cell contact. ELISA assays were then carried out on cell extracts to measure protein tyrosine kinase activity. […]

Experiment [3] concerns Gαo. The experiment is described as follows: 35S-GTPγS incorporation after addition of β-APPs to cell cultures, immunoprecipitation with Gαo antibodies. The class given is cell-based, mouse. How it is done: In addition, water-soluble β-APP ectodomain itself (B-APPs), when added to cultures of PS-1-only cells, could also activate G-proteins in a dose-dependent manner. β-APPs was partially purified from conditioned media of baculovirus cultures over-expressing human β-APP. The final product (FIG. 18b, lane 1) had, in addition to β-APP, three major contaminating bands at 81 kDa, 55 kDa and 31 kDa that co-purified with the β-APP ectodomain. This partially purified β-APPs preparation was added in increasing amounts to PS-1-only APP^−/− fibroblasts. After 15 mins the cells from each well were harvested in extraction buffer, and detergent extracts (each containing 100 μg protein) were treated with ^35S-GTPγS. Activation of Gαo was assayed after immunoprecipitation of the activated ^35S-GTPγS-Gαo with the Gαo-specific antibodies. […] Furthermore, when partially purified β-APPs was added to untransfected ES (PS^−/−) cells, no increase in G-protein activation was observed by ^35S-GTPγS assays (FIG. 18A, curve 5), further implicating PS as a receptor for the β-APP ligand in the Gαo activation.
To confirm that it was indeed the β-APPs in the partially purified β-APPs preparation that was the ligand responsible for G-protein activation, and not one of the contaminants, β-APPs was removed from the preparation by treatment with MAb 348 to β-APP (see FIG. 18C, lane 2). This β-APPs-depleted solution at the same concentrations used for the non-depleted preparation, was added to the PS-1-only cells, which were then treated exactly as described above. […] In contrast, the β-APPs preparation similarly treated with an irrelevant IgG when added to PS-1-only cells, gave results that resembled those obtained with the untreated samples (FIG. 18A, curve 2).
(§4) ^35S-GTPγS Assays: Extract (100 μg of total protein) was mixed with an equal volume of GTPγS Buffer B (50 mM HEPES/NaOH pH 7.4, 40 μM GDP, 50 mM MgCl2, 100 mM NaCl) and reacted with 50 nM ^35S-GTPγS (1250 Ci/mmol, Perkin Elmer, Waltham, Mass.) for 60 min at RT. The reaction was stopped with 10× Stopping buffer (100 mM Tris-HCl, pH 8, 25 mM MgCl2, 100 mM NaCl, 20 mM GTP) followed by immunoprecipitation of the ^35S-GTPγS-Gαo complex with Ab against a particular Gα. The Ab-protein complex was absorbed to Protein A/G agarose for 90 min at RT and washed. The agarose beads were suspended in scintillation fluid (CytoScint, ICN) (5 ml) and counted in a Beckman Coulter LS 6000 SC scintillation counter for 3 min.

The test system of a further experiment is G-protein Go. Put plainly: 35S-GTPγS incorporation after addition of β-APPs to solubilized rat hippocampal membranes. Format: biochemical. As for the experimental part: Because the results so far described were obtained using only cultured cells transfected with human PS, binding of the endogenous rat PS proteins with rat Gαo present in rat hippocampal membranes was examined. […]
as §4, §2

Entries after “also recorded” stand apart in the source; their conditions may differ.

T1 sequence (P63095 whole entry): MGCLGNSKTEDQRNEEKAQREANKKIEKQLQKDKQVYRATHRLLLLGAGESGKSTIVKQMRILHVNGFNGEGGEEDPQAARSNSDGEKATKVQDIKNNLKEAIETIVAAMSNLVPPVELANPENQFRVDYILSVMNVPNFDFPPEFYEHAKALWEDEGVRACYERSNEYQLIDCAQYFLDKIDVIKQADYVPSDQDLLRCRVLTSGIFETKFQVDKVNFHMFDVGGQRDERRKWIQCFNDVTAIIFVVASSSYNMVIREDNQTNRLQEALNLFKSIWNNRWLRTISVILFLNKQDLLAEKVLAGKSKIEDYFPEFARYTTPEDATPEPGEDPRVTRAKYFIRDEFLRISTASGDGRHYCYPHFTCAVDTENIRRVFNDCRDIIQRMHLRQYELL
T2 sequence (P59215 whole entry): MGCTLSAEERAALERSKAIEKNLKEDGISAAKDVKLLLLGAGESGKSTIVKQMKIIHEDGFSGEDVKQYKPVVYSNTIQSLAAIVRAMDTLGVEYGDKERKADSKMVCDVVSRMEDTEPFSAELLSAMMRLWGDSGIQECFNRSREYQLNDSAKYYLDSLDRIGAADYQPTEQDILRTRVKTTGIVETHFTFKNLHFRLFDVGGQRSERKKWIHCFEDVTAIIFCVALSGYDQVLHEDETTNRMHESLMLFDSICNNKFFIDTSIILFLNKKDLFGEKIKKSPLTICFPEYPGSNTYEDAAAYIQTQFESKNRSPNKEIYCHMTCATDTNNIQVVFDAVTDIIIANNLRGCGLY

For “DEEEDEEL [Peptide 8, 8-mer of the PS-1 N-terminal domain]”, the “cell-cell interaction and Aβ production, ELISA” value in the experiment on Aβ production is on record as “inhibits”.
In the case of “DEEEDEELTLKYGAK [Peptide 7, 15-mer of the PS-1 N-terminal domain]”, in the experiment with Aβ production, the “cell-cell interaction and Aβ production, ELISA” value is given as “inhibits”.
As for “KSVSFYTRKDGQLIYT [ic1(1-16), PS-1 cytoplasmic loop 1 peptide]”, in the experiment with Gαs, the “stimulation of 35S-GTPγS binding to Gs” value is “not”.
For “KYLPE [ic3, PS-1 cytoplasmic loop 3 peptide]”, the “stimulation of 35S-GTPγS binding to Go” value in the experiment with Gαo [1] is reported as “robust stimulation”. For the same substance, the “increase in activation of 35S-GTPγS binding over samples without peptide” value with Gαo [1] (rat membranes) worked out at 200%. Also, the “stimulation of 35S-GTPγS binding to Gq” value with Gαq was “robust stimulation”. Also, the “stimulation of 35S-GTPγS binding to Gs” value with Gαs was “only background stimulation”.
Consider “N-terminal domain of PS-1 fused to FLAG: fusion protein with FLAG attached at the N-terminus of the PS-1 N-terminal domain, grown in DH5α bacteria”, for which the entries for the “transient increase in protein tyrosine kinase activity after cell mixing” value in experiment [2] and in experiment [2] (listed as FLAG reporter fused to the N-terminal domain of PS-1) were “specifically inhibited; also recorded: none of the increases” and “no increase”, respectively.
Consider “PFTEDTETVGQRALHS [ic1(17-32), PS-1 cytoplasmic loop 1 peptide]”, for which the “stimulation of 35S-GTPγS binding to Gs” value in the experiment with Gαs is “induced stimulation”.
As to “RRSLGHPEPLSNGRP [Peptide 4, 15-mer of the PS-1 N-terminal domain]”, the “cell-cell interaction and Aβ production, ELISA” value in the experiment on Aβ production is listed as “inhibits”.
Consider “TDYLVQPFMDQLAFHQFYI [C(21-39), remaining 19 amino acids of the PS-1 cytoplasmic C-terminal tail]”, for which the “stimulation of 35S-GTPγS binding to Go” value with Gαo [1] (listed as COOH-terminal peptide corresponding to residues 21-39) is recorded as “failed to activate; also recorded: no detectable Go activation”. The “stimulation of 35S-GTPγS binding to Gq” value in the experiment with Gαq is reported as “robust stimulation”. In addition, the “stimulation of 35S-GTPγS binding to Gs” value in the experiment with Gαs is recorded as “induced stimulation”.
For the substance “VFKTYNVAVD [ic2, PS-1 cytoplasmic loop 2 peptide]”, the “stimulation of 35S-GTPγS binding to Go” value with Gαo [1] is reported as “only background stimulation”. In addition, the “stimulation of 35S-GTPγS binding to Gq” value with Gαq is “only background stimulation”. Besides, in the experiment with Gαs, the “stimulation of 35S-GTPγS binding to Gs” value is “only background stimulation”.
Regarding “β-APPs: water-soluble β-APP ectodomain, baculovirus-derived, purified or partially purified”, in experiment [2], the “transient increase in protein tyrosine kinase activity after cell mixing” value is reported as “specifically inhibited; also recorded: no increase; also recorded: none of the increases”. In addition, the 35S-GTPγS incorporation entry with Gαo [3] (PS-1-only APP-/- fibroblast cultures, increasing β-APPs, 15 mins) is recorded as “increased ^35S-GTPgS incorporation in a dose-dependent manner”; in the experiment on Gαo [3] (untransfected APP-/- fibroblasts expressing only endogenous PS) it was “modest G-protein activation; also recorded: only modest increases”; in the experiment with Gαo [3] (untransfected ES (PS-/-) cells), “no increase; also recorded: no significant increases”; in the experiment with G-protein Go (PS-depleted rat membranes (pre-treated with polyclonal Ab to PS-1 and PS-2)) it was “did not occur; also recorded: no increase”; with G-protein Go (solubilized rat hippocampal membranes (100 μg), 0-400 pM β-APPs, 15 min) it was “increased ^35S-GTPgS incorporation in a dose-dependent manner”. The “maximum increase in incorporation of 35S-GTPγS” value in the experiment with Gαo [3] (PS-1-only APP-/- fibroblasts, 120 pM β-APPs) is recorded as “over 500%”. Also, the “incorporation of 35S-GTPγS greater than untreated samples” value with G-protein Go (rat hippocampal membranes, 80 pM β-APPs) is 100%. Further, in the experiment with G-protein Go (rat hippocampal membranes, 400 pM β-APPs), the “increase in G-protein Go activation” value is given as “greater than 600%”.
